Consider 19 molecules from patent US12404295B2, “(Hetero)aryl-methyl-thio-beta-D-galactopyranoside derivatives” (Idorsia Pharmaceuticals Ltd, priority 2019, dated 2025).

For one experiment, the target named is human Gal-1 (hGal-1) (Homo sapiens (Human), UniProt P09382). Put plainly: competitive binding assay: biotinylated hGal-1 binding to microplate-adsorbed asialofetuin (ASF). The settings on record: Table 15; read-out: IC50 (Galectin-1 inhibition). The method, boiled down:
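Biotinylated human Gal-1 (300-1000 ng/mL) competes with serially diluted compound for binding to ASF-coated plates, 3 h at 4° C. Bound protein detected with streptavidin-peroxidase and ABTS substrate (spectrophotometric). IC50 given as mean of several measurements.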

Another experiment has as its target human Gal-3 (hGal-3) (Homo sapiens (Human), UniProt P17931). Put plainly: competitive binding assay: biotinylated hGal-3 binding to microplate-adsorbed asialofetuin (ASF). The method, boiled down:
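Competition of compounds with biotinylated human Gal-3 for asialofetuin-coated plates, 3 hours at 4° C. Bound Gal-3 detected with streptavidin-peroxidase (80 ng/mL, 1 hour, 4° C) and ABTS substrate. IC50 reported as the mean of several measurements.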

[1] abbreviates: Gal-3 inhibition, binding of biotinylated hGal-3 to ASF, mean values, read-out: IC50.
Where [2] appears, read: Table 11, read-out: IC50 (Gal-3 inhibition).
[3] abbreviates: Table 5, read-out: IC50 (Gal-3 inhibition).

Like-named read-outs stand apart in the source and are kept apart here.

human Gal-1 (hGal-1), sequence (P09382 whole entry): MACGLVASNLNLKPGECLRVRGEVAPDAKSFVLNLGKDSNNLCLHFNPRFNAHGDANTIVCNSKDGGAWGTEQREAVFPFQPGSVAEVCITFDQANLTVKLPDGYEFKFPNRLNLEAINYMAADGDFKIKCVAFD
human Gal-3 (hGal-3), sequence (P17931 whole entry): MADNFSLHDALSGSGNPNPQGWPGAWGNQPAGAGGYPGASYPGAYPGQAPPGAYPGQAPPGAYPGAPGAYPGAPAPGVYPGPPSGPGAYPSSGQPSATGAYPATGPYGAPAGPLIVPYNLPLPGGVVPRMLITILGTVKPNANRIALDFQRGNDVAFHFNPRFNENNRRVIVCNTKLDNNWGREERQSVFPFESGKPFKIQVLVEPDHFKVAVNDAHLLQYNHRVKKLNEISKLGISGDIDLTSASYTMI

Consider `OC[C@H]1O[C@@H](S[C@H](c2nccnc2Cl)C2(O)CCC(F)(F)CC2)[C@H](O)[C@@H](n2cc(-c3cc(F)c(F)c(F)c3)nn2)[C@H]1O` [Example 2.44.133R., (2S,3R,4S,5R,6R)-2-(((R)-(3-Chloropyrazin-2-yl)(4,4-difluoro-1-hydroxycyclohexyl)methyl)thio)-6-(hydroxymethyl)-4-(4-(3,4,5-trifluorophenyl)-1H-1,2,3-triazol-1-yl)tetrahydro-2H-pyran-3,5-diol], for which the results for the IC50 on human Gal-1 (hGal-1) and on human Gal-3 (hGal-3) (setting [1]) were 0.16 µM and 20 nM, respectively.

On to `CO[C@@H]1[C@@H](n2cc(-c3cc(F)c(F)c(F)c3)nn2)[C@@H](O)[C@@H](CO)O[C@H]1SC(c1noc(C2CC2)c1C)C1(O)CCC(F)(F)CC1` (some centres unmarked) [Example 2.44.145.I.], for which the half-maximal inhibitory concentration (IC50) (as a rule, the concentration that inhibits the measured activity by half) on human Gal-1 (hGal-1) worked out at 1.26 µM; on human Gal-3 (hGal-3) (setting [2]), 710 nM.

On to `Cc1nc(C(S[C@@H]2O[C@H](CO)[C@H](O)[C@H](n3cc(-c4cc(F)c(F)c(F)c4)nn3)[C@H]2O)C(C)(C)O)c(C)o1` (stereo partly drawn) [Example 2.31.122., (2S,3R,4S,5R,6R)-2-((1-(2,5-Dimethyloxazol-4-yl)-2-hydroxy-2-methylpropyl)thio)-6-(hydroxymethyl)-4-(4-(3,4,5-trifluorophenyl)-1H-1,2,3-triazol-1-yl)tetrahydro-2H-pyran-3,5-diol], for which the IC50 at human Gal-1 (hGal-1) is 2.14 µM; at human Gal-3 (hGal-3) (setting [1]), 880 nM.

Take `CC(C)(O)[C@@H](S[C@@H]1O[C@H](CO)[C@H](O)[C@H](n2cc(-c3cc(F)c(F)c(F)c3)nn2)[C@H]1O)c1ccccc1C1CC1` [Example 2.31.106S., (2S,3R,4S,5R,6R)-2-(((S)-1-(2-cyclopropylphenyl)-2-hydroxy-2-methylpropyl)thio)-6-(hydroxymethyl)-4-(4-(3,4,5-trifluorophenyl)-1H-1,2,3-triazol-1-yl)tetrahydro-2H-pyran-3,5-diol]: the results for the concentration for half-maximal inhibition (IC50) at human Gal-1 (hGal-1) and on human Gal-3 (hGal-3) (setting [1]) were 65 µM and 15900 nM, respectively.

With `CC(C)(O)[C@@H](S[C@@H]1O[C@H](CO)[C@H](O)[C@H](n2cc(-c3cc(F)c(F)c(F)c3)nn2)[C@H]1O)c1ccccc1C(F)(F)F` [Example 2.31.112S., (2S,3R,4S,5R,6R)-2-(((S)-2-Hydroxy-2-methyl-1-(2-(trifluoromethyl)phenyl)propyl)thio)-6-(hydroxymethyl)-4-(4-(3,4,5-trifluorophenyl)-1H-1,2,3-triazol-1-yl)tetrahydro-2H-pyran-3,5-diol], the 50% inhibitory concentration (IC50) at human Gal-1 (hGal-1) is 26.4 µM; at human Gal-3 (hGal-3) (setting [1]) it was 7070 nM.

Turning to `OC[C@H]1O[C@@H](S[C@@H](c2ccccc2C(F)(F)F)C2(O)CCOCC2)[C@H](O)[C@@H](n2cc(-c3cc(F)c(F)c(F)c3)nn2)[C@H]1O` [Example 2.41.112S., (2R,3R,4S,5R,6S)-2-(Hydroxymethyl)-6-(((S)-(4-hydroxytetrahydro-2H-pyran-4-yl)(2-(trifluoromethyl)phenyl)methyl)thio)-4-(4-(3,4,5-trifluorophenyl)-1H-1,2,3-triazol-1-yl)tetrahydro-2H-pyran-3,5-diol], the IC50 on human Gal-1 (hGal-1) amounted to 59.4 µM; at human Gal-3 (hGal-3) (setting [3]) it was 6000 nM.

On to `OC[C@H]1O[C@@H](S[C@@H](c2ccccc2C(F)(F)F)C2(O)CC(F)(F)C2)[C@H](O)[C@@H](n2cc(-c3cc(F)c(F)c(F)c3)nn2)[C@H]1O` [Example 2.33.112S.], for which the figures for the half-maximal inhibitory concentration (IC50) on human Gal-1 (hGal-1) and on human Gal-3 (hGal-3) (setting [3]) were 21.7 µM and 11300 nM, respectively.

As for `CC(C)Cc1c([C@H](S[C@@H]2O[C@H](CO)[C@H](O)[C@H](n3cc(-c4cc(F)c(F)c(F)c4)nn3)[C@H]2O)C2(O)CCC(F)(F)CC2)noc1C1CC1` [Example 2.44.131S., (2S,3R,4S,5R,6R)-2-(((S)-(5-Cyclopropyl-4-isobutylisoxazol-3-yl)(4,4-difluoro-1-hydroxycyclohexyl)methyl)thio)-6-(hydroxymethyl)-4-(4-(3,4,5-trifluorophenyl)-1H-1,2,3-triazol-1-yl)tetrahydro-2H-pyran-3,5-diol], the half-maximal inhibitory concentration (IC50) on human Gal-1 (hGal-1) is 13.7 µM; at human Gal-3 (hGal-3) (setting [1]), 9740 nM.

In the case of `CC(C)Cc1ccccc1C(S[C@@H]1O[C@H](CO)[C@H](O)[C@H](n2cc(-c3cc(F)c(F)c(F)c3)nn2)[C@H]1O)C(C)(C)O` (stereo partly drawn) [Example 2.31.107., (2S,3R,4S,5R,6R)-2-((2-Hydroxy-1-(2-isobutylphenyl)-2-methylpropyl)thio)-6-(hydroxymethyl)-4-(4-(3,4,5-trifluorophenyl)-1H-1,2,3-triazol-1-yl)tetrahydro-2H-pyran-3,5-diol], the IC50 at human Gal-1 (hGal-1) is 0.24 µM; on human Gal-3 (hGal-3) (setting [1]) it was 260 nM.

Take `CC(C)c1ccccc1[C@@H](S[C@@H]1O[C@H](CO)[C@H](O)[C@H](n2cc(-c3cc(F)c(F)c(F)c3)nn2)[C@H]1O)C(C)(C)O` [Example 2.31.105R., (2S,3R,4S,5R,6R)-2-(((R)-2-Hydroxy-1-(2-isopropylphenyl)-2-methylpropyl)thio)-6-(hydroxymethyl)-4-(4-(3,4,5-trifluorophenyl)-1H-1,2,3-triazol-1-yl)tetrahydro-2H-pyran-3,5-diol]: the half-maximal inhibitory concentration (IC50) on human Gal-1 (hGal-1) came to 0.16 µM; on human Gal-3 (hGal-3) (setting [1]), 60 nM.

For “(2S,3R,4S,5R,6R)-2-(((R)-((R)-4-Hydroxy-2,2-dimethyltetrahydro-2H-pyran-4-yl)(o-tolyl)methyl)thio)-6-(hydroxymethyl)-4-(4-(3,4,5-trifluorophenyl)-1H-1,2,3-triazol-1-yl)tetrahydro-2H-pyran-3,5-diol [Example 2.43.112RR.]”, the figures for the IC50 at human Gal-1 (hGal-1) and at human Gal-3 (hGal-3) (setting [3]) were 6.8 µM and 1500 nM, respectively.

For `Cc1ccccc1[C@@H](S[C@@H]1O[C@H](CO)[C@H](O)[C@H](n2cc(-c3cc(F)c(F)c(F)c3)nn2)[C@H]1O)C1(O)CC(C)C1` (stereo partly drawn) [Example 2.36.102R., (2S,3R,4S,5R,6R)-2-(((1R)-(1-Hydroxy-3-methylcyclobutyl)(o-tolyl)methyl)thio)-6-(hydroxymethyl)-4-(4-(3,4,5-trifluorophenyl)-1H-1,2,3-triazol-1-yl)tetrahydro-2H-pyran-3,5-diol], the half-inhibitory concentration (IC50) on human Gal-1 (hGal-1) was determined as 3.5 µM; at human Gal-3 (hGal-3) (setting [3]), 440 nM.

Consider `CC(C)(O)[C@H](S[C@@H]1O[C@H](CO)[C@H](O)[C@H](n2cc(-c3cc(F)c(F)c(F)c3)nn2)[C@H]1O)c1ccccc1Cl` [Example 2.31.111R., (2S,3R,4S,5R,6R)-2-(((R)-1-(2-Chlorophenyl)-2-hydroxy-2-methylpropyl)thio)-6-(hydroxymethyl)-4-(4-(3,4,5-trifluorophenyl)-1H-1,2,3-triazol-1-yl)tetrahydro-2H-pyran-3,5-diol], for which the IC50 at human Gal-1 (hGal-1) is 3.19 µM; on human Gal-3 (hGal-3) (setting [1]), 380 nM.

Regarding `CC(C)(O)[C@@H](S[C@@H]1O[C@H](CO)[C@H](O)[C@H](n2cc(-c3cc(F)c(F)c(F)c3)nn2)[C@H]1O)c1cccnc1C(F)(F)F` [Example 2.31.118S., (2S,3R,4S,5R,6R)-2-(((S)-2-Hydroxy-2-methyl-1-(2-(trifluoromethyl)pyridin-3-yl)propyl)thio)-6-(hydroxymethyl)-4-(4-(3,4,5-trifluorophenyl)-1H-1,2,3-triazol-1-yl)tetrahydro-2H-pyran-3,5-diol], the concentration for half-maximal inhibition (IC50) on human Gal-1 (hGal-1) was determined as 8.2 µM; on human Gal-3 (hGal-3) (setting [1]), 6210 nM.

For the molecule `OC[C@H]1O[C@@H](S[C@H](c2ccccc2C(F)(F)F)C2(O)CCC(F)(F)CC2)[C@H](O)[C@@H](n2cc(-c3cc(F)c(F)c(F)c3)nn2)[C@H]1O` [Example 2.44.112R., (2S,3R,4S,5R,6R)-2-(((R)-(4,4-Difluoro-1-hydroxycyclohexyl)(2-(trifluoromethyl)phenyl)methyl)thio)-6-(hydroxymethyl)-4-(4-(3,4,5-trifluorophenyl)-1H-1,2,3-triazol-1-yl)tetrahydro-2H-pyran-3,5-diol], the IC50 came out at 0.77 µM on human Gal-1 (hGal-1) and 80 nM at human Gal-3 (hGal-3) (setting [3]).

Turning to “(2S,3R,4S,5R,6R)-2-(((2,3-Dichlorophenyl)(4,4-difluoro-1-hydroxycyclohexyl)methyl)thio)-6-(hydroxymethyl)-4-(4-(3,4,5-trifluorophenyl)-1H-1,2,3-triazol-1-yl)tetrahydro-2H-pyran-3,5-diol [Example 2.44.113.]”, the 50% inhibitory concentration (IC50) at human Gal-1 (hGal-1) worked out at 2.35 µM; at human Gal-3 (hGal-3) (setting [3]) it was 360 nM.

Turning to `OC[C@H]1O[C@@H](SC(c2ccccc2)C2CC2)[C@H](O)[C@@H](n2cc(-c3cc(F)c(F)c(F)c3)nn2)[C@H]1O` (stereo partly drawn) [Example 2.54.100., (2S,3R,4S,5R,6R)-2-((Cyclopropyl(phenyl)methyl)thio)-6-(hydroxymethyl)-4-(4-(3,4,5-trifluorophenyl)-1H-1,2,3-triazol-1-yl)tetrahydro-2H-pyran-3,5-diol, reference compound], the half-maximal inhibitory concentration (IC50) at human Gal-1 (hGal-1) came to 61.2 µM; on human Gal-3 (hGal-3) (setting [1]), 3210 nM.

On to `CCc1cccnc1[C@@H](S[C@@H]1O[C@H](CO)[C@H](O)[C@H](n2cc(-c3cc(F)c(F)c(F)c3)nn2)[C@H]1OC)C1(O)CCC(F)(F)CC1` [Example 2.44.142R.I., (2R,3R,4S,5R,6S)-6-(((R)-(4,4-Difluoro-1-hydroxycyclohexyl)(3-ethylpyridin-2-yl)methyl)thio)-2-(hydroxymethyl)-5-methoxy-4-(4-(3,4,5-trifluorophenyl)-1H-1,2,3-triazol-1-yl)tetrahydro-2H-pyran-3-ol [1,3-di-deoxy-1-((4,4-difluoro-1-hydroxy-cyclohexan-1-yl)-(3-(-ethyl)pyridin-2-yl)methyl-(R)-thio)-2-O-methyl-3-[4-(3,4,5-trifluorophenyl)-1H-1,2,3-triazol-1-yl]-b-D-galactopyranoside]], for which the IC50 was 0.1 µM on human Gal-1 (hGal-1) and 30 nM on human Gal-3 (hGal-3) (setting [2]).

For the molecule `OC[C@H]1O[C@@H](S[C@@H](c2ncccc2C(F)(F)F)C2(O)CCOCC2)[C@H](O)[C@@H](n2cc(-c3cc(F)c(F)c(F)c3)nn2)[C@H]1O` [Example 2.41.125S., (2R,3R,4S,5R,6S)-2-(Hydroxymethyl)-6-(((S)-(4-hydroxytetrahydro-2H-pyran-4-yl)(3-(trifluoromethyl)pyridin-2-yl)methyl)thio)-4-(4-(3,4,5-trifluorophenyl)-1H-1,2,3-triazol-1-yl)tetrahydro-2H-pyran-3,5-diol], the values for the IC50 on human Gal-1 (hGal-1) and on human Gal-3 (hGal-3) (setting [3]) were 7.47 µM and 1830 nM, respectively.
